Source: US20070111216A1 (priority 2004, published 2007)

Assays:
Type in all cases: biochemical
[1] = molecular target: T1, E. coli RNA Polymerase Core Enzyme (Escherichia coli, UniProt P0A8T7+P0A8V2); experiment: Rolling circle transcription on circular 45mer ssDNA monitored in real time (SYBR Gold) and by gel electrophoresis; conditions: 20 μg/ml α-amanitin, 10 min preincubation at 37° C., 0.5 mM each NTP, about 1.5 hours (FIG. 4)
T1 construct: purchased EPICENTRE
Protocol: A single-stranded circularized 45mer DNA molecule having the same sequence as the circular 45mer used in Example 1 (Sequence I.D. No. 1) was obtained.
A reaction mixture was prepared containing 0.5 units of E. coli RNA Polymerase Core Enzyme, and a reaction buffer. The reaction mixture was incubated in the presence of 1 μM rifampicin, 20 U TAGETIN (Epicentre Biotechnologies), or 20 μg/ml α-amanitin for 10 min at 37° C. Subsequently, 0.8 pmole of the circularized 45mer DNA oligomer were added to the reaction mixture followed by incubation for 5 min at 37° C. Then SYBR Gold (Molecular Probes), which had been diluted 1:20,000, was added. Subsequently, ATP, CTP, GTP and UTP were added such that the concentration of each NTP was 0.5 mM in the final reaction mixture. Fluorescence was measured for about 1.5 hours in an iCycler iQ real-time PCR detection system (Bio-Rad Laboratories) using 490 nm excitation and 530 nm emission wavelengths. Afterwards, the reaction products were analyzed by gel electrophoresis.

[2] = test system: soy germ RNA polymerase II; experiment: Rolling circle transcription on circular 38mer ssDNA, products visualized by agarose gel electrophoresis; conditions: 37° C. for 2 hours, 0.5 mM each NTP, concentration of inhibitor not printed (FIG. 2)
Protocol: (§1) A single-stranded circularized 38mer DNA molecule having the same sequence as the circular 38mer used in Example 2 (Sequence I.D. No. 2) was obtained.
(§2) A reaction mixture was prepared comprising 5 pmoles of the circularized 38mer DNA molecule, 1 unit of E. coli RNA Polymerase Holoenzyme (EPICENTRE) or of soy germ RNA polymerase II, 0.5 mM of each NTP and a reaction buffer. The reaction mixture was incubated at 37° C. for 2 hours in the presence or absence of rifampicin or α-amanitin. The reaction products were visualized by agarose gel electrophoresis.

[3] = molecular target: T2, E. coli RNA polymerase Holoenzyme (Escherichia coli, UniProt P0A8T7+P0A8V2); experiment: as above; conditions: 37° C. for 2 hours, 0.5 mM each NTP, concentration of inhibitor not printed (FIG. 2)
T2 construct: purchased EPICENTRE
Protocol: as §1, §2

T2 sequence (P0A8V2 whole entry): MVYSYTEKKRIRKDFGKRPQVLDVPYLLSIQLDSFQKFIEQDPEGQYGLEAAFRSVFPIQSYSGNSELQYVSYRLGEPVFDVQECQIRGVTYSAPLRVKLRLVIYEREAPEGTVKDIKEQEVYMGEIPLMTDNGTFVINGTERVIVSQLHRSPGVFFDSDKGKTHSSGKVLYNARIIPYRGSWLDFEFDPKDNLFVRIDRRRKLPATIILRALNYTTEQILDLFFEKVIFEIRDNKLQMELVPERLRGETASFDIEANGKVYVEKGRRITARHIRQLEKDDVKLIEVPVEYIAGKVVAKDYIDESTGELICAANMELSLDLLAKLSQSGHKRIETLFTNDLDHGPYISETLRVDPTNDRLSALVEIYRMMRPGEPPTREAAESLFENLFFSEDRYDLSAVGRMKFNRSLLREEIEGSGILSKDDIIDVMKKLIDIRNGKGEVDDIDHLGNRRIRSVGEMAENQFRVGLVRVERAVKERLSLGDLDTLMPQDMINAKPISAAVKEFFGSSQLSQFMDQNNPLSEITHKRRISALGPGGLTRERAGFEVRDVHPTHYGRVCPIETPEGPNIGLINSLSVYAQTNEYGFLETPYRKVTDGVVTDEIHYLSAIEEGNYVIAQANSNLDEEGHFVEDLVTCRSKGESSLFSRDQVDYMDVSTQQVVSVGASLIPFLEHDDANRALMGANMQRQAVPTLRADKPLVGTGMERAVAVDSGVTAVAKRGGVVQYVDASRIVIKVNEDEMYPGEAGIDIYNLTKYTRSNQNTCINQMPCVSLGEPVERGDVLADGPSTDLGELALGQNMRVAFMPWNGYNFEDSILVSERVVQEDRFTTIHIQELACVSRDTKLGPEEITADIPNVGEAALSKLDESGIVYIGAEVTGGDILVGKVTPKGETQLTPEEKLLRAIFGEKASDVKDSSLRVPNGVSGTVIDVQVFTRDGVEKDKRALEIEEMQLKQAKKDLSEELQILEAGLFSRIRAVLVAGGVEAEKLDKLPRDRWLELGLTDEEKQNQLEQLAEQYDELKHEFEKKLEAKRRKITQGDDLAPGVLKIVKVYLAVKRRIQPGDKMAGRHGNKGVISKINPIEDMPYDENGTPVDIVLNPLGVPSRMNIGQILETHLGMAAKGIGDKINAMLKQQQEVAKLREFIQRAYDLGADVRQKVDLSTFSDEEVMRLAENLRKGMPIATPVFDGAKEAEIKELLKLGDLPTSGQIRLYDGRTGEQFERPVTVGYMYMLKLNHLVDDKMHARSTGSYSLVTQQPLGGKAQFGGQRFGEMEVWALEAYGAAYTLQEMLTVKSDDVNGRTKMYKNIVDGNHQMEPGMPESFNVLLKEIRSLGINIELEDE
T2 sequence (P0A8T7 whole entry): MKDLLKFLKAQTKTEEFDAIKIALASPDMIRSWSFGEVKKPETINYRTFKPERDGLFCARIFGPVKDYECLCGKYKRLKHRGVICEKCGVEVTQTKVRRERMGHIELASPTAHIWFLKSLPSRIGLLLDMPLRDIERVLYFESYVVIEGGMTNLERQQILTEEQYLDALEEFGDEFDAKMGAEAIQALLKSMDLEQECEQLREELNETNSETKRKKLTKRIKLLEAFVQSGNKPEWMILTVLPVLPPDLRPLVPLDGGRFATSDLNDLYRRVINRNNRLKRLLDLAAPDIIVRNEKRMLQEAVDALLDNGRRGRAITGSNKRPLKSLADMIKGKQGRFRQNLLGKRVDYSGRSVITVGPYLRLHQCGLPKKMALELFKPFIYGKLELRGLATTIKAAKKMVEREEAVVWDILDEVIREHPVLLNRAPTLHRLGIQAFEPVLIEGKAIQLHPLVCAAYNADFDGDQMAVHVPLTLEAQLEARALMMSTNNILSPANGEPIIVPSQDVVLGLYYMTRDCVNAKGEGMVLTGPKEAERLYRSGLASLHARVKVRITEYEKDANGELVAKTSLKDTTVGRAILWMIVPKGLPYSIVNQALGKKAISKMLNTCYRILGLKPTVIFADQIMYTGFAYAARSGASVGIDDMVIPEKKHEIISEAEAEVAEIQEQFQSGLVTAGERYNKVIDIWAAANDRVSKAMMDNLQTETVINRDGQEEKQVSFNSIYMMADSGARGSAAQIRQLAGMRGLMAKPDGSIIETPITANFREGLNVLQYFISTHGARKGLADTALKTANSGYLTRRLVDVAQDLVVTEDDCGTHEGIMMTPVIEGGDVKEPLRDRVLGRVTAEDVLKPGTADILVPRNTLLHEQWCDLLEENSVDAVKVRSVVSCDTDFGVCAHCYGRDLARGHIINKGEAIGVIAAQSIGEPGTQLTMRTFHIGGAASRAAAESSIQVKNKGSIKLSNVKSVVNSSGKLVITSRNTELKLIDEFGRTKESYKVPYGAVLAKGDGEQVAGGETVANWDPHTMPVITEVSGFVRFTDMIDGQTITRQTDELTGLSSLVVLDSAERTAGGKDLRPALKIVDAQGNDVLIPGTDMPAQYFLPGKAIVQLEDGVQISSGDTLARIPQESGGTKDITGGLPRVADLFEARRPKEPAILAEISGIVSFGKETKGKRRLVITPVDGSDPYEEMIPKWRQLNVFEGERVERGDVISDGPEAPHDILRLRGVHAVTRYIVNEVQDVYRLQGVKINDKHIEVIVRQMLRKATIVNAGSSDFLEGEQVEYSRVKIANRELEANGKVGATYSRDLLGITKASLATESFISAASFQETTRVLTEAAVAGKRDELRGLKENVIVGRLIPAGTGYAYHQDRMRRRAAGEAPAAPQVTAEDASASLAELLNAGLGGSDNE
T2 sequence (P0A7Z4 whole entry partner): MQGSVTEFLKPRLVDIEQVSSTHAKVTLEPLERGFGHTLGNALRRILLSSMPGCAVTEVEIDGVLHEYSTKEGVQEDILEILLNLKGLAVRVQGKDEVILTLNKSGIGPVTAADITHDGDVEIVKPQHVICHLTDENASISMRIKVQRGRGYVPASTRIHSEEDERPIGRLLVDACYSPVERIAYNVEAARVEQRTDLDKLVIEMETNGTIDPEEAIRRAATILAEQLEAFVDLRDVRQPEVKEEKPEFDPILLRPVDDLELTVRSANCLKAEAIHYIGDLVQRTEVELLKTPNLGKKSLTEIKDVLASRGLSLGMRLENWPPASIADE
T2 sequence (P0A800 2-91 partner limits assumed): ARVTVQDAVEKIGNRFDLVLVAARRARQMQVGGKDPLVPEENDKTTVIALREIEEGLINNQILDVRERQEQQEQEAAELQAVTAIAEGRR
T2 sequence (P00579 whole entry partner): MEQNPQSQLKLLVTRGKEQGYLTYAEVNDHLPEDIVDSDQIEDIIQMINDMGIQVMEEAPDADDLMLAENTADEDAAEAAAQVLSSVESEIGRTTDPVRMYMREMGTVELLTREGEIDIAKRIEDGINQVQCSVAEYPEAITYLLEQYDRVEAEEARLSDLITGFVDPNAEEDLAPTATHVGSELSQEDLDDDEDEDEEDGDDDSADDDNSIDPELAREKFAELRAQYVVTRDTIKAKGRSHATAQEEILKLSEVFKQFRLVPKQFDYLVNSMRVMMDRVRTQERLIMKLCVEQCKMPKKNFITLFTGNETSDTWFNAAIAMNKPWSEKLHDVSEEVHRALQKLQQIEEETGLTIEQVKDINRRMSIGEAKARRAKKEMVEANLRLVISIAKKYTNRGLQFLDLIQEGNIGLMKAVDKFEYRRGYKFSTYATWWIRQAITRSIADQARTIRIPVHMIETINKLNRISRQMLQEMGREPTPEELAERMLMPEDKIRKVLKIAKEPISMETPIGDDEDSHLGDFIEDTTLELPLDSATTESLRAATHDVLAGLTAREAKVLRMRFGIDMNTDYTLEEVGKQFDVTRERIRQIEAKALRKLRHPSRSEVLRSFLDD

CC[C@H](C)[C@@H]1NC(=O)CNC(=O)[C@@H]2Cc3c([nH]c4cc(O)ccc34)[S+]([O-])C[C@@H](NC(=O)CNC1=O)C(=O)N[C@@H](CC(N)=O)C(=O)N1C[C@H](O)C[C@H]1C(=O)N[C@@H]([C@@H](C)[C@@H](O)CO)C(=O)N2 (stereo in doubt) [α-amanitin]
RNA synthesis in the presence of inhibitor [1]: RNA was synthesized
Inhibition of RNA polymerase activity [2]: Inhibitory effects
Inhibition of RNA polymerase activity [3]: no inhibition
